Our source for the relative potency values is patent publication EP0218688B1, “DIHALO-STATINE SUBSTITUTED RENIN INHIBITORS” (THE UPJOHN COMPANY, priority 1985, dated 1986).

The test concerns the target T1, renin (Homo sapiens, UniProt P00797).
T1 construct: Lyophilized human plasma with 0.1% EDTA is obtained from New England Nuclear; tissue New England Nuclear Plasma Renin Activity Control; host or cells: human plasma (lyophilized, reconstituted)
T1 sequence (P00797 67-406): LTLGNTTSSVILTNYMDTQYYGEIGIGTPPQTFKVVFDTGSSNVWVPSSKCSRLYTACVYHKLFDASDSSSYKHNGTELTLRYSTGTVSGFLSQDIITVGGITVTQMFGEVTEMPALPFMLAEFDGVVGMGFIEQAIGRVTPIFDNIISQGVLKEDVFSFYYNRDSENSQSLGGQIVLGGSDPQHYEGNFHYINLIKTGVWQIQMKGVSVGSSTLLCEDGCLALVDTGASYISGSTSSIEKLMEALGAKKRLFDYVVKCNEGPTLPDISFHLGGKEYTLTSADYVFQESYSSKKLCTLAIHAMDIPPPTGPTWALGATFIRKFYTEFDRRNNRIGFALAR
Nature of the test: GAMMACOAT plasma renin activity (PRA) radioimmunoassay, inhibition of angiotensin I generation in reconstituted human plasma. Type of test: biochemical. As to conditions: I50 of RIP compared with I50 of the compound, RIP value of the same assay day. As for the experimental part: Lyophilized human plasma with 0.1% EDTA is obtained from New England Nuclear, North Billerica, Massachusetts 01862 as "Plasma Renin Activity Control". This lyophilized plasma is reconstituted, on the day of the assay, with cold sterile distilled water according to directions on the vial. The plasma renin activity (PRA) of the reconstituted plasma is assayed with "GAMMACOAT [^125 Plasma Renin Activity Radioimmunoassay Kit" supplied by Clinical Assays, a Division of Travenol Laboratories, Inc., Cambridge, Massachusetts 02139. The procedure used with these kits is carried out essentially as described in the literature which accompanies them. […]
In the case of renin inhibitory peptide (RIP), […] of the 4°C. blank is added to a GAMMACOAT® tube. […] The tubes are then counted in a gamma counter. The results of the RIP are evaluated with the Rodbard Radioimmunoassay Program and the plasma renin activity (PRA) is expressed as […]. […] In addition to l50 values, relative potencies are also calculated. A relative potency is determined by comparing the 150 of RIP to the l50 of the compound. However, it must be emphasized that relative potencies are calculated from the l50 obtained for RIP on the day the compound is assayed and not from the average 15o for RIP.

Molecules are shown by their SMILES.

Regarding `CC[C@H](C)[C@H](NC(=O)C(F)(F)[C@H](O)[C@H](CC(C)C)NC(=O)[C@H](Cc1c[nH]cn1)NC(=O)[C@H](Cc1ccccc1)NC(=O)OC(C)(C)C)C(=O)NCc1ccccn1` [N-tert-Butyloxycarbonyl-L-phenylalanyl-L-histidyl-2,2-difluoro-statyl-L-isoleucyl-2-pyridylmethylamide], the relative potency is listed as 1,000.
As for `CC[C@H](C)[C@H](NC(=O)C(F)(F)C(=O)C(CC(C)C)NC(=O)[C@H](Cc1c[nH]cn1)NC(=O)[C@H](Cc1ccccc1)NC(=O)OC(C)(C)C)C(=O)NCc1ccccn1` (stereo partly drawn) [N-tert-Butyloxycarbonyl-L-phenylalanyl-L-histidyl-2,2-difluoro-statonyl-L-isoleucyl-2-pyridylmethylamide], the figure is 6100.
